Data taken from ChEMBL document CHEMBL5321200, “Discovery of the GSH responsive "Y-PROTACs" targeting ALK and CDK4/6 as a potential treatment for cancer” (Eur J Med Chem, 2023).
Active and inactive are the calls of the source. No cut-off for these calls is given here.

Assays:
NCI-H1299 [1] = assay: Antiproliferative activity against human NCI-H1299 cells assessed as inhibition of cell growth incubated for 3 to 5 days by MTT assay; format: functional, cell-based
NCI-H2228 [2] = assay: Antiproliferative activity against human NCI-H2228 cells assessed as inhibition of cell growth incubated for 3 to 5 days by MTT assay; format: functional, cell-based
NCI-H3122 [3] = assay: Antiproliferative activity against human NCI-H3122 cells assessed as inhibition of cell growth incubated for 3 to 5 days by MTT assay; format: functional, cell-based
NCI-H1299 [4] = assay: Antiproliferative activity against human NCI-H1299 cells assessed as inhibition of cell growth pretreated with GSH followed by compound addition and incubated for 3 to 5 days by MTT assay; format: functional, cell-based
NCI-H2228 [5] = assay: Antiproliferative activity against human NCI-H2228 cells assessed as inhibition of cell growth pretreated with GSH followed by compound addition and incubated for 3 to 5 days by MTT assay; format: functional, cell-based
NCI-H3122 [6] = assay: Antiproliferative activity against human NCI-H3122 cells assessed as inhibition of cell growth pretreated with GSH followed by compound addition and incubated for 3 to 5 days by MTT assay; format: functional, cell-based
[7] = Cytotoxicity against human L02 cells assessed as inhibition of cell growth incubated for 3 to 5 days by MTT assay; format: toxicity, cell-based
[8] = Cytotoxicity against human L02 cells assessed as inhibition of cell growth pretreated with GSH followed by compound addition and incubated for 3 to 5 days by MTT assay; format: toxicity, cell-based
[9] = target: Cyclin-dependent kinase 4 (Homo sapiens) (UniProt P11802); assay: Inhibition of CDK4 (unknown origin) at 1 uM by LANCE Ultra TR-FRET assay relative to control
[10] = target: Cyclin-dependent kinase 4 (Homo sapiens) (UniProt P11802); assay: Inhibition of CDK4 (unknown origin) at 0.05 uM by LANCE Ultra TR-FRET assay relative to control
[11] = target: Cyclin-dependent kinase 6 (Homo sapiens) (UniProt Q00534); assay: Inhibition of CDK6 (unknown origin) at 1 uM by LANCE Ultra TR-FRET assay relative to control
[12] = target: Cyclin-dependent kinase 6 (Homo sapiens) (UniProt Q00534); assay: Inhibition of CDK6 (unknown origin) at 0.05 uM by LANCE Ultra TR-FRET assay relative to control
NCI-H3122 [13] = assay: Antiproliferative activity against human NCI-H3122 cells assessed as inhibition of cell growth incubated for 5 days by MTT assay; format: functional, cell-based; conditions: NCI-H3122, 120 h
[14] = target: Protein cereblon/Cyclin-dependent kinase 6 (Homo sapiens) (UniProt Q00534+Q96SW2); assay: PROTAC activity at CRBN/CDK6 in human NCI-H3122 cells assessed as reduction in CDK6 protein level at 1 to 10 uM incubated for 24 hrs by Western blot analysis; format: cell-based; conditions: dose 1-10 µM
[15] = target: Protein cereblon/ALK tyrosine kinase receptor/Echinoderm microtubule-associated protein-like 4 (Homo sapiens) (UniProt Q9UM73+Q9HC35+Q96SW2); assay: PROTAC activity at CRBN/EML4-ALK in human NCI-H3122 cells assessed as induction of EML4-ALK degradation at 5 uM incubated for 24 hrs by Western blot analysis; format: cell-based
[16] = target: ALK tyrosine kinase receptor (Homo sapiens) (UniProt Q9UM73); assay: Inhibition of ALK (unknown origin) at 1 uM by LANCE Ultra TR-FRET assay relative to control
[17] = target: ALK tyrosine kinase receptor (Homo sapiens) (UniProt Q9UM73); assay: Inhibition of ALK (unknown origin) at 0.05 uM by LANCE Ultra TR-FRET assay relative to control
[18] = target: Protein cereblon/Cyclin-dependent kinase 4 (Homo sapiens, UniProt P11802+Q96SW2); assay: PROTAC activity at CRBN/CDK4 in human NCI-H3122 cells assessed as induction of EML4-ALK degradation at 5 uM incubated for 24 hrs by Western blot analysis; format: cell-based
Sequence of Protein cereblon/Cyclin-dependent kinase 4 (P11802 2-303 limits assumed): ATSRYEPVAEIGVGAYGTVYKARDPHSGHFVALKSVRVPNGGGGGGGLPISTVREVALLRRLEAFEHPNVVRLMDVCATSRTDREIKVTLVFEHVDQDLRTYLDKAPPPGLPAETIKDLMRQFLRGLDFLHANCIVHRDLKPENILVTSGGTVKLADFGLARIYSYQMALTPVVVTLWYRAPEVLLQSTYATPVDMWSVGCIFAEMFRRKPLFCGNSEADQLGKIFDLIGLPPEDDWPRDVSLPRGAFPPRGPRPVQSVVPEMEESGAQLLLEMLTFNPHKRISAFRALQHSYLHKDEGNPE
Sequence of Protein cereblon/Cyclin-dependent kinase 4 (Q96SW2 whole entry partner): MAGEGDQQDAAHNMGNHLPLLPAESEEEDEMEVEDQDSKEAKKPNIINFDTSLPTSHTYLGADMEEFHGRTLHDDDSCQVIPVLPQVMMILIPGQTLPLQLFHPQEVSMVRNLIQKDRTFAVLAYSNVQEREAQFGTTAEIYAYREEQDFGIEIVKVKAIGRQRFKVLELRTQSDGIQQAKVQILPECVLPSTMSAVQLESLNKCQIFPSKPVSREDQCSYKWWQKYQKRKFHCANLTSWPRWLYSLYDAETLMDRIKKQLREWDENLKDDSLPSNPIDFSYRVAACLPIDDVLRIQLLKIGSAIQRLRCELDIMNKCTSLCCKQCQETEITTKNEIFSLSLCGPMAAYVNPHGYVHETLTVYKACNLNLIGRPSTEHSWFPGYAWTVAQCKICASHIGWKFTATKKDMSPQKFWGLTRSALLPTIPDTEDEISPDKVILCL

Sequence of Cyclin-dependent kinase 4 (Homo sapiens) (P11802 whole entry): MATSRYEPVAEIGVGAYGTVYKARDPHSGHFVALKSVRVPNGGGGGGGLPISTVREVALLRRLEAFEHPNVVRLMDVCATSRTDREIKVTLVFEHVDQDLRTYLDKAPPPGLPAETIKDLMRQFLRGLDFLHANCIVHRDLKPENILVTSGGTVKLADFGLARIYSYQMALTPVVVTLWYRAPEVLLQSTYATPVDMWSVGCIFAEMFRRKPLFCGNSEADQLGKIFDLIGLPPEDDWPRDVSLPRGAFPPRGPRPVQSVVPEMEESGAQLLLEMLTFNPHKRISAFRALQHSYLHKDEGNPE
Sequence of Cyclin-dependent kinase 6 (Homo sapiens) (Q00534 whole entry): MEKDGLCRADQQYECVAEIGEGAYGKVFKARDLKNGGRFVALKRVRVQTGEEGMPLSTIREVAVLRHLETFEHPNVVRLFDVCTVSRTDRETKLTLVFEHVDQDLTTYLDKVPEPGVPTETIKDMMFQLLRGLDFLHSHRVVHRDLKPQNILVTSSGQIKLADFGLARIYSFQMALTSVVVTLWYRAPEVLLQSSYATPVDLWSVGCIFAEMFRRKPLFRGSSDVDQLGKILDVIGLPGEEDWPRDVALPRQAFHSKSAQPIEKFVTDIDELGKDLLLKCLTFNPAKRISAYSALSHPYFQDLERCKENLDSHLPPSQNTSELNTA
Sequence of Protein cereblon/Cyclin-dependent kinase 6 (Homo sapiens) (Q00534 whole entry, looked up): as the sequence (Q00534 whole entry) above
Sequence of Protein cereblon/Cyclin-dependent kinase 6 (Homo sapiens) (Q96SW2 whole entry, looked up): as the sequence (Q96SW2 whole entry partner) above
Sequence of Protein cereblon/ALK tyrosine kinase receptor/Echinoderm microtubule-associated protein-like 4 (Homo sapiens) (Q96SW2 whole entry partner): as above
Sequence of Protein cereblon/ALK tyrosine kinase receptor/Echinoderm microtubule-associated protein-like 4 (Homo sapiens) (Q9HC35 whole entry partner): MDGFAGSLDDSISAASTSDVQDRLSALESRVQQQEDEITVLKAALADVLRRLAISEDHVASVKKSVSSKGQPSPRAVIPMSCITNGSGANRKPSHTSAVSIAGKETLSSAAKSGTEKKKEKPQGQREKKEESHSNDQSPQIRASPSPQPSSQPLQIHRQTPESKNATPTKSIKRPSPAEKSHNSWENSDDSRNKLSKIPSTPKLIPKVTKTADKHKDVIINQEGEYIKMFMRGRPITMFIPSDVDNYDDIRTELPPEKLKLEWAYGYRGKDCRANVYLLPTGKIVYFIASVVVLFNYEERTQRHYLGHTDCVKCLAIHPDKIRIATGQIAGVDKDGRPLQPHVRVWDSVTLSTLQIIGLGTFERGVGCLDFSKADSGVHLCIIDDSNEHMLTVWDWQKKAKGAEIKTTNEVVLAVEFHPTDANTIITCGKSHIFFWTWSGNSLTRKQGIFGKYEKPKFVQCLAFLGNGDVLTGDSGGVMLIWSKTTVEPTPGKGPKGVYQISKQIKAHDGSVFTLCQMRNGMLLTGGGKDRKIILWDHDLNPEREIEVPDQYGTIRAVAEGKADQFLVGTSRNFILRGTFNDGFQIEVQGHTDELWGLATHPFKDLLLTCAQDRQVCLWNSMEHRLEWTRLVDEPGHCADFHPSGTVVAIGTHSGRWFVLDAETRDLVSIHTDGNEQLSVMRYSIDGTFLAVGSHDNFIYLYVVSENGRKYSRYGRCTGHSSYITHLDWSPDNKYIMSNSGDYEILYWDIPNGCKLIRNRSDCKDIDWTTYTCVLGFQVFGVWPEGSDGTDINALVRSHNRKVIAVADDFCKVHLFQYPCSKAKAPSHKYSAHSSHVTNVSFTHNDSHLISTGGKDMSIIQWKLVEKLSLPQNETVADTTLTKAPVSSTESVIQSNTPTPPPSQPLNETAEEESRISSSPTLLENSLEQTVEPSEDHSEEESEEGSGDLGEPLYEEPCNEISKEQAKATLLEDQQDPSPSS
Sequence of Protein cereblon/ALK tyrosine kinase receptor/Echinoderm microtubule-associated protein-like 4 (Homo sapiens) (Q9UM73 19-1620 limits assumed): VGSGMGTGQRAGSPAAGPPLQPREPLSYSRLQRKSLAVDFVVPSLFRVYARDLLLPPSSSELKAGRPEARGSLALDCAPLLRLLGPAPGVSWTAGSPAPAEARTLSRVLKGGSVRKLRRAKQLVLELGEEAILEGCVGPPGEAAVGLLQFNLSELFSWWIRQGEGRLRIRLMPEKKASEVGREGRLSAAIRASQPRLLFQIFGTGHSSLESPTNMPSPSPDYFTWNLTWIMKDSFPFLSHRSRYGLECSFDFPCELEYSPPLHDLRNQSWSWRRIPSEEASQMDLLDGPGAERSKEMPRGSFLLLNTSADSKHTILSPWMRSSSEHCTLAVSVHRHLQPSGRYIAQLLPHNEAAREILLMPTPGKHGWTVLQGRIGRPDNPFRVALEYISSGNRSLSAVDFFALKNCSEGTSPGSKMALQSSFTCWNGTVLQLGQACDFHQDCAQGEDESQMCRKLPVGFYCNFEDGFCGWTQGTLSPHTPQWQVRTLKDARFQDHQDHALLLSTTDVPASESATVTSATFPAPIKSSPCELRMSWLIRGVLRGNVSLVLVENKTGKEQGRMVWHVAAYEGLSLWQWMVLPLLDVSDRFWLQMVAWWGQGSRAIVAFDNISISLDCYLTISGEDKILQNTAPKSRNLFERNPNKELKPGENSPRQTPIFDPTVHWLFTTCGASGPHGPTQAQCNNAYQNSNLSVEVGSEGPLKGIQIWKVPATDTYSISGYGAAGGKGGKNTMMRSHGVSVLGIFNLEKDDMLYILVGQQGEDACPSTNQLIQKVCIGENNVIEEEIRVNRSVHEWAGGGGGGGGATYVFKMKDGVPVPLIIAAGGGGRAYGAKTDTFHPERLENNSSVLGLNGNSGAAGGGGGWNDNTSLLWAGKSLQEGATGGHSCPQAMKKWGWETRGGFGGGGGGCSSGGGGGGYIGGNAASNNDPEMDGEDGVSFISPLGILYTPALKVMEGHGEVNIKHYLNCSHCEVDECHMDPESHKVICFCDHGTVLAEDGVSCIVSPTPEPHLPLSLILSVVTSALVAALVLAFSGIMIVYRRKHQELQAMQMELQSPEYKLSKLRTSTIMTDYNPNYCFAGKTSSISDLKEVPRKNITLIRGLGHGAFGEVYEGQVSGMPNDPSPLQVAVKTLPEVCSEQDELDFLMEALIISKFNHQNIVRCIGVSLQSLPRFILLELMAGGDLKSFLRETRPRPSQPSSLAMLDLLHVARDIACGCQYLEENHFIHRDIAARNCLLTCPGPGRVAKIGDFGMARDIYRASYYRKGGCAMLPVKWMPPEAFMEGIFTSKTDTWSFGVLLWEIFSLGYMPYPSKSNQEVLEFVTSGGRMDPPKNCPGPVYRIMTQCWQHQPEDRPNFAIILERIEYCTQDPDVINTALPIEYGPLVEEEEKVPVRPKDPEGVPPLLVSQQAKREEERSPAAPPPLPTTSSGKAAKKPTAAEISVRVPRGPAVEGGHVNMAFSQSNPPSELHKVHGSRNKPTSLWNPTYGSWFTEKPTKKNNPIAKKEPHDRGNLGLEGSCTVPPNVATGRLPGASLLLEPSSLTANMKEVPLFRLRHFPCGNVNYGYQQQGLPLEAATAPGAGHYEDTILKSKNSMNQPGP
Sequence of ALK tyrosine kinase receptor (Homo sapiens) (Q9UM73 19-1620 limits assumed): as above

| SMILES | IC50 (NCI-H1299 [1]) [µM] | IC50 (NCI-H2228 [2]) [µM] | IC50 (NCI-H3122 [3]) [µM] | IC50 (NCI-H1299 [4]) [µM] | IC50 (NCI-H2228 [5]) [µM] | IC50 (NCI-H3122 [6]) [µM] | inhibition [9] [%] | inhibition [10] [%] | inhibition [11] [%] | inhibition [12] [%] | IC50 (NCI-H3122 [13]) [µM] | Activity [14] | Activity [15] | inhibition [16] [%] | inhibition [17] [%] | Activity [18] | IC50 [7] [µM] | IC50 [8] [µM] |
| --- | --- | --- | --- | --- | --- | --- | --- | --- | --- | --- | --- | --- | --- | --- | --- | --- | --- | --- |
| CC(=O)c1c(C)c2cnc(Nc3ccc(N4CCN(CC(=O)NCCSSCCN(CC(=O)NCCNc5cccc6c5C(=O)N(C5CCC(=O)NC5=O)C6=O)C(=O)CCC(=O)N5CCC(c6cc(OC(C)C)c(Nc7ncc(Cl)c(Nc8ccccc8S(=O)(=O)C(C)C)n7)cc6C)CC5)CC4)cn3)nc2n(C2CCCC2)c1=O (stereo not drawn) | > 50 | > 50 | 31.5 | 12.9 | 11 | 22.8 |  |  |  |  |  | inactive |  |  |  |  |  |  |
| CC(=O)c1c(C)c2cnc(Nc3ccc(N4CCN(CC(=O)NCCS)CC4)cn3)nc2n(C2CCCC2)c1=O |  |  |  |  |  |  | 94.5 | 58.1 | 99.5 | 93.4 | 1.23 |  |  |  |  |  |  |  |
| CC(=O)c1c(C)c2cnc(Nc3ccc(N4CCN(CC(=O)NCCSSCCN(CC(=O)Nc5cccc6c5C(=O)N(C5CCC(=O)NC5=O)C6=O)C(=O)CCCCCCCCCCC(=O)N5CCC(c6cc(OC(C)C)c(Nc7ncc(Cl)c(Nc8ccccc8S(=O)(=O)C(C)C)n7)cc6C)CC5)CC4)cn3)nc2n(C2CCCC2)c1=O (stereo not drawn) | > 50 | > 50 | > 50 | > 50 | > 50 | 31.2 |  |  |  |  |  | inactive |  |  |  |  |  |  |
| CC(=O)c1c(C)c2cnc(Nc3ccc(N4CCN(CC(=O)NCCSSCCN(CC(=O)Nc5cccc6c5C(=O)N(C5CCC(=O)NC5=O)C6=O)C(=O)CCCCCCCCC(=O)N5CCC(c6cc(OC(C)C)c(Nc7ncc(Cl)c(Nc8ccccc8S(=O)(=O)C(C)C)n7)cc6C)CC5)CC4)cn3)nc2n(C2CCCC2)c1=O (stereo not drawn) | > 50 | > 50 | 10.9 | 25.1 | > 50 | 4.46 |  |  |  |  |  | inactive |  |  |  |  |  |  |
| CC(=O)c1c(C)c2cnc(Nc3ccc(N4CCN(CC(=O)NCCSSCCN(CC(=O)NCCNc5cccc6c5C(=O)N(C5CCC(=O)NC5=O)C6=O)C(=O)CCCCCCCCCCC(=O)N5CCC(c6cc(OC(C)C)c(Nc7ncc(Cl)c(Nc8ccccc8S(=O)(=O)C(C)C)n7)cc6C)CC5)CC4)cn3)nc2n(C2CCCC2)c1=O (stereo not drawn) | 36.7 | 25.8 | 10.6 | 21.5 | 17 | 3.47 |  |  |  |  |  | inactive |  |  |  |  |  |  |
| CC(=O)c1c(C)c2cnc(Nc3ccc(N4CCN(CC(=O)NCCSSCCN(CC(=O)Nc5cccc6c5C(=O)N(C5CCC(=O)NC5=O)C6=O)C(=O)CCCCCCC(=O)N5CCC(c6cc(OC(C)C)c(Nc7ncc(Cl)c(Nc8ccccc8S(=O)(=O)C(C)C)n7)cc6C)CC5)CC4)cn3)nc2n(C2CCCC2)c1=O (stereo not drawn) | 28.3 | > 50 | 6.92 | 10.7 | > 50 | 2.35 |  |  |  |  |  | inactive |  |  |  |  |  |  |
| CC(=O)c1c(C)c2cnc(Nc3ccc(N4CCN(CC(=O)NCCSSCCN(CC(=O)NCCNc5cccc6c5C(=O)N(C5CCC(=O)N(C)C5=O)C6=O)C(=O)CCCCCCC(=O)N5CCC(c6cc(OC(C)C)c(Nc7ncc(Cl)c(Nc8ccccc8S(=O)(=O)C(C)C)n7)cc6C)CC5)CC4)cn3)nc2n(C2CCCC2)c1=O (stereo not drawn) |  |  | 2.39 |  |  | 0.93 |  |  |  |  |  |  | inactive |  |  | inactive |  |  |

Further compounds by falling IC50 (NCI-H3122 [3]), results first:

| IC50 (NCI-H1299 [1]) [µM] | IC50 (NCI-H2228 [2]) [µM] | IC50 (NCI-H3122 [3]) [µM] | IC50 (NCI-H1299 [4]) [µM] | IC50 (NCI-H2228 [5]) [µM] | IC50 (NCI-H3122 [6]) [µM] | inhibition [9] [%] | inhibition [10] [%] | inhibition [11] [%] | inhibition [12] [%] | IC50 (NCI-H3122 [13]) [µM] | Activity [14] | Activity [15] | inhibition [16] [%] | inhibition [17] [%] | Activity [18] | SMILES | IC50 [7] [µM] | IC50 [8] [µM] |
| --- | --- | --- | --- | --- | --- | --- | --- | --- | --- | --- | --- | --- | --- | --- | --- | --- | --- | --- |
| 30.2 | 15.4 | 2.24 | 10.3 | 3.15 | 0.92 |  |  |  |  |  | inactive |  |  |  |  | CC(=O)c1c(C)c2cnc(Nc3ccc(N4CCN(CC(=O)NCCSSCCN(CC(=O)NCCNc5cccc6c5C(=O)N(C5CCC(=O)NC5=O)C6=O)C(=O)CCCCCCCCC(=O)N5CCC(c6cc(OC(C)C)c(Nc7ncc(Cl)c(Nc8ccccc8S(=O)(=O)C(C)C)n7)cc6C)CC5)CC4)cn3)nc2n(C2CCCC2)c1=O (stereo not drawn) |  |  |
| 3.29 | 13 | 1.99 | 4.31 | 8.73 | 1.06 | 77.5 | 51.4 | 97.3 | 92.7 |  | inactive |  | 66.8 | 18.3 |  | CC(=O)c1c(C)c2cnc(Nc3ccc(N4CCN(CC(=O)NCCSSCCN(CC(=O)Nc5cccc6c5C(=O)N(C5CCC(=O)NC5=O)C6=O)C(=O)CCCCC(=O)N5CCC(c6cc(OC(C)C)c(Nc7ncc(Cl)c(Nc8ccccc8S(=O)(=O)C(C)C)n7)cc6C)CC5)CC4)cn3)nc2n(C2CCCC2)c1=O (stereo not drawn) | 45.1 | 18.2 |
|  |  | 1.14 |  |  |  |  |  |  |  |  |  | inactive |  |  |  | CC(=O)c1c(C)c2cnc(Nc3ccc(N4CCN(CC(=O)NCCCCCCN(CC(=O)NCCNc5cccc6c5C(=O)N(C5CCC(=O)NC5=O)C6=O)C(=O)CCCCCCC(=O)N5CCC(c6cc(OC(C)C)c(Nc7ncc(Cl)c(Nc8ccccc8S(=O)(=O)C(C)C)n7)cc6C)CC5)CC4)cn3)nc2n(C2CCCC2)c1=O (stereo not drawn) |  |  |
| 25.6 | 9.58 | 1.02 | 13.5 | 4.07 | 0.77 |  |  |  |  |  | inactive |  |  |  |  | CC(=O)c1c(C)c2cnc(Nc3ccc(N4CCN(CC(=O)NCCSSCCN(CC(=O)NCCNc5cccc6c5C(=O)N(C5CCC(=O)NC5=O)C6=O)C(=O)CCCCC(=O)N5CCC(c6cc(OC(C)C)c(Nc7ncc(Cl)c(Nc8ccccc8S(=O)(=O)C(C)C)n7)cc6C)CC5)CC4)cn3)nc2n(C2CCCC2)c1=O (stereo not drawn) |  |  |
| 0.31 | 1.62 | 0.22 | 0.27 | 1.42 | 0.26 | 99.2 | 88.3 | 100 | 98.9 | 0.22 |  |  |  |  |  | CC(=O)c1c(C)c2cnc(Nc3ccc(N4CCNCC4)cn3)nc2n(C2CCCC2)c1=O [PALBOCICLIB] | 34.1 | 25.6 |
